Data from patent US20220288091A1, “Method for Improving Insulin Sensitivity” (priority 2019, published 2022).
Values joined by “and” are separate entries in the source; they are usually repeats but may differ in a detail not shown here. Equal values may be shown once.

What was measured:
Format in all cases: in vivo, human
[1] = Plasma hormone levels (testosterone, androstenedione, DHEA sulfate); conditions: 50 mg every 6 hours for 9 days, mean±SD
Procedure: To reduce potential variability associated with estrogen in premenopausal women, testing was performed in the early follicular phase (days 1-7 of menstrual cycle). Baseline height and weight were measured after an overnight fast. Subjects received an isocaloric regular diet during the inpatient part of the study, and those on metformin took the same dose throughout the study. Baseline testing took place took place over three inpatient days at the NIH Clinical Center, during which fasting blood was drawn, 24-hour urine was collected, 24-hour serial blood draws were obtained, and patients received both a […] (FSIVGTT) and a 75-g oral glucose tolerance test (OGTT). Subjects were then randomized to receive placebo or mifepristone for 9 days, of which the first 6 days the subjects returned home, and the final 3 days subjects underwent the same metabolic testing as during the baseline period. Subjects randomized to the mifepristone treatment arm were instructed to take one capsule (50 mg) every 6 hours (200 mg/day) over the course of 9 days. The placebo treatment arm received the same instructions to take one capsule every 6 hours over the course of the 9-day treatment period. Following the completion of the post-drug testing, subjects entered a 6-8 week washout period, after which they were crossed over to the other treatment arm, serving as their own controls for the study drug treatments.

[2] = system: overweight or obese subjects with prediabetes or mild type 2 diabetes; assay: Frequently sampled intravenous glucose tolerance test (FSIVGTT); conditions: Ln(FFA) slope / AUC insulin 0-90 min of FSIVGTT; 50 mg every 6 hours for 9 days; mean±SD, n=16
Procedure: A randomized, placebo-controlled, double-blind crossover trial was conducted to evaluate the use of an anti-glucocorticoid as a means for ameliorating insulin resistance. Mifepristone, 50 mg, or a placebo, was administered every six hours for nine days to sixteen overweight or obese (BMI 25-37 kg/m^2) subjects (seven women). Participant ages ranged from 48 to 64 years. Ten had prediabetes and six had mild diabetes type II (HgbA1c less than 7%). Treatment of the glucose disorder with diet or a stable dose of metformin (used by two patients) was maintained for three (3) months before the study. The interventions were nine days of mifepristone or placebo treatment followed by a six (6) to eight (8) week wash out and cross over to the other arm. At baseline and at the end of each treatment period, parameters of insulin sensitivity were assessed by a frequently sampled intravenous glucose tolerance test (FSIVGTT) and an oral glucose tolerance test (OGTT). […] Adipo-IR, a surrogate measure of adipocyte insulin resistance, was calculated by multiplying fasting concentrations of free fatty acids and insulin (mmol×pmol/L). […]
Insulin sensitivity index, SI, was determined from the minimal model using data from the insulin-modified FSIVGTT as previously described (version 6.02; MinMOD Millenium, Los Angeles, Calif.). […]

[3] = system: overweight or obese subjects with prediabetes or mild type 2 diabetes; assay: Fasting plasma glucose, insulin and fasting surrogate indices (HOMA-IR, QUICKI, Adipo-IR) in placebo-controlled crossover trial; conditions: 50 mg every 6 hours for 9 days, n=16
Procedure: A randomized, placebo-controlled, double-blind crossover trial was conducted to evaluate the use of an anti-glucocorticoid as a means for ameliorating insulin resistance. Mifepristone, 50 mg, or a placebo, was administered every six hours for nine days to sixteen overweight or obese (BMI 25-37 kg/m^2) subjects (seven women). Participant ages ranged from 48 to 64 years. Ten had prediabetes and six had mild diabetes type II (HgbA1c less than 7%). Treatment of the glucose disorder with diet or a stable dose of metformin (used by two patients) was maintained for three (3) months before the study. The interventions were nine days of mifepristone or placebo treatment followed by a six (6) to eight (8) week wash out and cross over to the other arm. At baseline and at the end of each treatment period, parameters of insulin sensitivity were assessed by a frequently sampled intravenous glucose tolerance test (FSIVGTT) and an oral glucose tolerance test (OGTT). A whole body glucose disposal index of insulin sensitivity (SI) was derived using a minimal model analysis. Adipose tissue-SI, which reflects insulin-induced free fatty acid suppression, was estimated by the log-linear slope of free fatty acid levels and the AUC of insulin during the FSIVGTT. Matsuda index, oral glucose insulin sensitivity index (OGIS, ml/min/m^2), and hepatic insulin resistance index (HIRI, mg/dl×microU/ml×10^5) were derived from OGTT. Adipo-IR, a surrogate measure of adipocyte insulin resistance, was calculated by multiplying fasting concentrations of free fatty acids and insulin (mmol×pmol/L). Comparison of various post-treatment parameters was performed using crossover ANOVA. This analysis takes into account specific treatment arm, treatment order, and treatment effects. Thus, carryover effects were explicitly tested for in the crossover study.
The inventors conducted a random, triple-blinded, placebo-controlled, cross-over study using mifepristone (50 mg every 6 hours, 200 mg total daily dose) in overweight/obese individuals (n=16, 44% female) with pre-DM (pre-diabetes mellitus) or mild type 2 diabetes mellitus (glycated hemoglobin A1C […]). Mifepristone or placebo was administered for 9 days followed by a washout period of 6 to 8 weeks, and then crossover to the other treatment arm. At baseline and after each treatment period, the oral glucose tolerance test and frequently sampled intravenous glucose tolerance test were performed. Insulin sensitivity (SI) was measured using Matsuda index and oral glucose insulin sensitivity index (OGISI). Hepatic SI was assessed using hepatic insulin resistance index (HIRI), and adipose tissue SI was assessed using adipo-IR adipose tissue insulin sensitivity index (ATISI).
The study in this example used a prospective, randomized, double-blind placebo-controlled, cross-over design in which eligible subjects were randomized in blocks of six to the initial arm of the study: either placebo or mifepristone (50 mg tablets every 6 hours) for 9 days. This was followed by a 6-8 week washout period. Subjects were then crossed over to the other treatment arm for an additional 9 days. The study was conducted at the National Institutes of Health (NIH) Clinical Center, Bethesda, Md., U.S.
To reduce potential variability associated with estrogen in premenopausal women, testing was performed in the early follicular phase (days 1-7 of menstrual cycle). Baseline height and weight were measured after an overnight fast. […]

For `CC#C[C@]1(O)CC[C@H]2[C@@H]3CCC4=CC(=O)CCC4=C3[C@@H](c3ccc(N(C)C)cc3)C[C@@]21C` [Mifepristone, 11beta-[p-(dimethylamino)phenyl]-17alpha-(1-propynl)estra-4,9-dien-17beta-ol-3-one], the Androstenedione ([1]; n=16) was 110 ± 64.7 ng/dL, the “DHEA Sulfate” value ([1]; n=16) was 1.04 ± 0.64 µg/mL and the “Total testosterone (male)” value ([1]; male subjects) was 235.2 ± 87.5 ng/dL. The “Adipose-tissue Insulin Sensitivity Index (Adipose SI)” value [2] was 61.7±32.9, the “Fasting Glucose” value ([3]; post-treatment mean±SD) was 100.4 ± 15.3 mg/dL and the “Fasting Insulin” value ([3]; post-treatment mean±SD) was 95.7 ± 76.1 pmol/L and 95.6 ± 76.1 pmol/L. For the same compound, the HOMA-IR ([3]; post-treatment mean±SD) was 3.58 ± 3.27, the QUICKI ([3]; post-treatment mean±SD) was 0.332 ± 0.034 and the “Adipose-tissue Insulin Resistance Index (Adipo-IR)” value ([3]; fasting FFA × fasting insulin, mean±SD) was 50.0±46.0 mmol×pmol/L.
